Results on seven compounds are retold here after patent US20240336602A1 (Katholieke Universiteit Leuven, priority 2020, published 2024).

In the assay the target is T1, mouse TRPM3a2 (mTRPM3) ion channel (Mus musculus, UniProt J9SQF3).
T1 construct: expressed in transfected cells; host or cells: flip-in HEK293
Kind of assay: TRPM3 ion channel driven Ca2+ uptake, Fluo-4 AM assay (PS-stimulated, overexpressing flip-in HEK293 cells). The assay is classed as cell-based. The settings on record: PS (50 μM) stimulated. An outline of the steps: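 Flip-in HEK293 cells overexpressing mTRPM3α2, loaded with Fluo-4 AM, were added to wells with compound plus 50 μM pregnenolone sulfate in Ca2+-containing Krebs buffer and read immediately (ex 485/em 535 nm). Percent inhibition was scaled between PS-plus-vehicle and positive-control-inhibitor signals.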

T1 sequence (J9SQF3 1-1709 isoform J9SQF3-12): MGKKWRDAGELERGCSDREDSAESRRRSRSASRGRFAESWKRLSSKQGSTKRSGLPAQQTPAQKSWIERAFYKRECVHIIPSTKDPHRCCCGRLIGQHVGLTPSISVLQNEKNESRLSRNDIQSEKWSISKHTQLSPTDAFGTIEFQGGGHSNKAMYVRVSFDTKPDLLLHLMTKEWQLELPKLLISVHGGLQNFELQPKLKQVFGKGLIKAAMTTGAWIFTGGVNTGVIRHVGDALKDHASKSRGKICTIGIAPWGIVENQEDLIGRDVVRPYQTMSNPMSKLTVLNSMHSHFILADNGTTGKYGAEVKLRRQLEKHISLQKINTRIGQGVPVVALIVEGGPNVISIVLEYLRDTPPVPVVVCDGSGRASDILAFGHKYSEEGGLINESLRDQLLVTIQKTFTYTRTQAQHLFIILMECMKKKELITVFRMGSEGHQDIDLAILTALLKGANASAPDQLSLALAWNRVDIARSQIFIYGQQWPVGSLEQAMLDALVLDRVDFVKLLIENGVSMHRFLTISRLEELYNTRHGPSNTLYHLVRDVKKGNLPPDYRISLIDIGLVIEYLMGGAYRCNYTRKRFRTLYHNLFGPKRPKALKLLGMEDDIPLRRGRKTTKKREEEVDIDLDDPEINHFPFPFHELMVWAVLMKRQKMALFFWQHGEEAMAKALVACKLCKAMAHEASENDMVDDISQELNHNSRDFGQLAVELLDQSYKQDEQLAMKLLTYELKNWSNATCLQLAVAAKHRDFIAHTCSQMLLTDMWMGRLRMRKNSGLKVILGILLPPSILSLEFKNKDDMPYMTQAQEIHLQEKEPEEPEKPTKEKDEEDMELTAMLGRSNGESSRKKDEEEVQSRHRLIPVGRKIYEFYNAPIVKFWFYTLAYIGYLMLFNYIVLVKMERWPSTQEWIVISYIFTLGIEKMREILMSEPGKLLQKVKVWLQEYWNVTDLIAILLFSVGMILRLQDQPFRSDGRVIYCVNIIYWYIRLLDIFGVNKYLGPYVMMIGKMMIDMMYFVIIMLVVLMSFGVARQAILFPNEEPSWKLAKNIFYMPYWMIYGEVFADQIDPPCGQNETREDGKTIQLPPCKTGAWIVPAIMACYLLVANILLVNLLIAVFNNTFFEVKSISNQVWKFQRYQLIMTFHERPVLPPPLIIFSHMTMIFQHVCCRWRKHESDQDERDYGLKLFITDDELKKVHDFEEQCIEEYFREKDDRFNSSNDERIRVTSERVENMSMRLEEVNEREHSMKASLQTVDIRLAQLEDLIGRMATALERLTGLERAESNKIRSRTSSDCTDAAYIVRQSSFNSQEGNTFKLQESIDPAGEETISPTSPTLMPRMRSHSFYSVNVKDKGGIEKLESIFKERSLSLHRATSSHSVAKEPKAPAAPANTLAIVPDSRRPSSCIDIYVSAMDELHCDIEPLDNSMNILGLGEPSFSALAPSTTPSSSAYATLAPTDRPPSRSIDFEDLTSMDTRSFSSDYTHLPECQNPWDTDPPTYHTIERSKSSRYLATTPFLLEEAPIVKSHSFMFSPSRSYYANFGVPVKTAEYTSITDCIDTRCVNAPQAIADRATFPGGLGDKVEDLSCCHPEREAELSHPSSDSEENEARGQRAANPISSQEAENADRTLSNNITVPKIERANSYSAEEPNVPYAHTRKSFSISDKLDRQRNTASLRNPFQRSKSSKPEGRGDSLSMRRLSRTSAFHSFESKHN

In turn, `Cc1oc2ccc(OCc3ccnc(O)c3)cc2c1C(=O)NC1(CO)CCOCC1` [cpd 628, N-(4-(hydroxymethyl)tetrahydro-2H-pyran-4-yl)-5-((2-hydroxypyridin-4-yl)methoxy)-2-methylbenzofuran-3-carboxamide] showed an IC50 (cpds. 600-666) of 1 to 20 µM. In the case of `COc1ccc(COc2ccc3oc(C)c(C(=O)NC4(CO)CCOCC4)c3c2)cn1` [cpd 632, N-(4-(hydroxymethyl)tetrahydro-2H-pyran-4-yl)-5-((6-methoxypyridin-3-yl)methoxy)-2-methylbenzofuran-3-carboxamide], the IC50 (cpds. 600-666) is 1 to 20 µM.

Turning to `Cc1oc2ccc(OCc3ccc4nccn4c3)cc2c1C(=O)NC1(CO)CCOCC1` [cpd 633, N-(4-(hydroxymethyl)tetrahydro-2H-pyran-4-yl)-5-(imidazo[1,2-a]pyridin-6-ylmethoxy)-2-methylbenzofuran-3-carboxamide], the IC50 (cpds. 600-666) is 1 to 20 µM. The same measure, in the same setting: next, `Cc1oc2ccc(OCc3cccnc3C(F)(F)F)cc2c1C(=O)N(CCO)C1CCC1` [cpd 659, N-cyclobutyl-N-(2-hydroxyethyl)-2-methyl-5-((2-(trifluoromethyl)pyridin-3-yl)methoxy)benzofuran-3-carboxamide]: 1 to 20 µM. On to `Cc1cc(COc2ccc3oc(C)c(C(=O)N[C@@H](CO)C(N)=O)c3c2)on1` [cpd 674], for which the IC50 (cpds. 667-751) was at most 1 µM. Still for that read-out and setting: with `Cc1oc2ccc(OCc3c[nH]nc3C(F)(F)F)cc2c1C(=O)N[C@H](C(N)=O)[C@@H](C)O` [cpd 685, N-((2S,3R)-1-amino-3-hydroxy-1-oxobutan-2-yl)-2-methyl-5-((3-(trifluoromethyl)-1H-pyrazol-4-yl)methoxy)benzofuran-3-carboxamide] the figure was at most 1 µM; with `Cc1oc2ccc(OCc3ncccc3C3CC3)cc2c1C(=O)NC1(CO)CCOCC1` [cpd 705, 5-((3-cyclopropylpyridin-2-yl)methoxy)-N-(4-(hydroxymethyl)tetrahydro-2H-pyran-4-yl)-2-methylbenzofuran-3-carboxamide], 1 to 20 µM.
